From patent US20250262225A1, “COMPOSITION FOR TREATMENT OF COVID-19 COMPRISING TAURODEOXYCHOLIC ACID OR PHARMACEUTICALLY ACCEPTABLE SALT THEREOF AS ACTIVE INGREDIENT” (SHAPERON INC., priority 2021, published 2025)

Experiments:
mBMDM cells = test: intracellular cAMP concentration in LPS-stimulated mBMDM (chemiluminescent analysis); assay type: cell-based, mouse; details: 100 ng/ml LPS and 400 ng/ml TDCA simultaneously for 30 minutes; FIG. 1A
Procedure: Specifically, the bone marrow extracted from C57BL/6N mouse was differentiated in RPMI medium supplemented with 10% FBS, 100 U/ml penicillin streptomycin, 55 μM 2-mercaptoethanol, and 10 ng/ml recombinant mouse granulocyte-macrophage colony-stimulating factor (GM-CSF) for 7 days.

mBMDM [1] = test: qRT-PCR of inflammation-related factor transcription in LPS+BzATP-treated mBMDM; assay type: cell-based, mouse; details: 10 ng/ml LPS, 300 μM BzATP and 400 ng/ml TDCA simultaneously 1 hour, FIG. 1B
Procedure: (§1) The bone marrow-derived macrophages of Example <1-1> were cultured in culture dishes at various densities and then collected (4×10^4, 5×10^5, 1×10^6 cells/well, 96-well, 24-well, and 12-well culture dishes, respectively). […] After the time expired, the cells were collected, stored at −80° C., and then subjected to qRT-PCR analysis.

mBMDM [2] = test: TNF-α ELISA in LPS-primed mBMDM; assay type: cell-based, mouse; details: 10 ng/ml LPS 3 hours, then 0, 25, 100, 400 ng/ml TDCA 1 hour, FIG. 1C
Procedure: After the time expired, the supernatant was collected, stored at −80° C., and then subjected to ELISA analysis.

mBMDM [3] = test: IL-1β ELISA in mBMDM activated with LPS+ATP or LPS+BzATP; assay type: cell-based, mouse; details: then 0, 25, 100 or 400 ng/ml TDCA, FIG. 2B
Procedure: as §1, with “supernatant was” for “cells were”, “ELISA” for “qRT-PCR”

[4] = system: sepsis induced by intravenous LPS in dogs; test: canine LPS-induced sepsis (systemic inflammation) model; assay type: in vivo, dog; details: LPS i.v.
Procedure: After LPS administration, blood pressure was monitored every 1 hour, blood was collected at 0, 1, 3, 6, 12, 18, 24, 36, and 48 h, and the animals were sacrificed at 48 h to complete the experiment.
The survival rate was examined by checking the number of beagle dogs that died for 48 hours in the two treatment groups in which sepsis was induced in Example <2-1>.
Blood pressure was measured hourly for 48 hours in the two treatment groups in which sepsis was induced in Example <2-1>.
Blood urea nitrogen (BUN) and creatinine tests were performed as renal function tests. Specifically, blood was collected hourly for 48 hours from the two treatment groups in which sepsis was induced in Example <2-1>, serum was separated, and then BUN and […] concentrations in the serum were measured.
Blood was collected hourly for 48 hours from the two treatment groups in which sepsis was induced in Example <2-1>, serum was separated, and then the inflammatory cytokine IL-1β in the serum was measured.

[5] = phase 1 clinical trial: safety/tolerability and pharmacokinetics in healthy adult male volunteers; assay type: in vivo, human; details: healthy males
Procedure: Forty healthy adult male volunteers in Korea were selected as subjects for the clinical trial. The clinical trial was conducted at Seoul National University Hospital (Seoul, Korea) and was targeted at people who met all of the selection criteria in [Table 1].
A randomized, double-blind, standard treatment-based placebo-controlled trial group was assigned to evaluate drug safety/tolerability and pharmacokinetics (PK) in clinical trial subjects. As a therapeutic agent, NuSepin, an injectable clinical agent containing TDCA, was used.
A screening test was performed on healthy male volunteers within 4 weeks (−28 d to −4 d) from the first administration date (1 d) of the study drug to select test subjects determined to be suitable for this clinical trial. […] In the morning on the study drug administration date (1 d), designated tests such as blood collection for pharmacokinetic analysis and safety evaluation were performed, and then the study drug or placebo was administered intravenously on an empty stomach. The test subjects were subjected to the clinical trial according to the set schedule and discharged from the hospital 1 day (2 d) after administration, and the subjects who completed all clinical trial schedules underwent a post-study visit between 4 d and 6 d.
• Monitoring of adverse events such as subjective and objective symptoms • Physical examination • Vital signs • Electrocardiogram (12-Lead ECG) test • Clinical laboratory test • Local toxicity assessment • Continuous ECG and SpO2 monitoring
Adverse events were described by dose group and treatment group based on severity and causal relationship with the stsudy drug, and the frequency and percentage of the number of test subjects with adverse events were compared and evaluated. Vital signs, electrocardiogram test, clinical laboratory tests, physical examination, monitoring of adverse events such as subjective and objective symptoms, continuous ECG and SpO2 monitoring, and the like were comprehensively reviewed, and statistical analysis was performed if necessary only on items determined to be clinically significant.
Pharmacokinetic variables were obtained by a non-compartmental analysis method for subjects who completed this clinical trial using appropriate and validated pharmacokinetic software (for example, Phoenix WinNonlin® (Version 8.0 or higher, Pharsight, CA, USA)), and descriptive statistics (mean, standard deviation, and the like) were obtained for each dose group and treatment group.

[6] = half-life estimate from non-clinical data; details: calculated based on estimates made from non-clinical data
[7] = single i.v. NuSepin 0.1-1.6 mg/kg or placebo

sodium taurodeoxycholate [TDCA]
cAMP concentration in cells (mBMDM cells): recovered
intracellular transcriptional expression of ASC (mBMDM [1]): decreased
intracellular transcriptional expression of Caspase1 (mBMDM [1]): decreased
intracellular transcriptional expression of IL-1β (mBMDM [1]): decreased
intracellular transcriptional expression of NLRP3 (mBMDM [1]): decreased
TNF-α produced by LPS (mBMDM [2]): decreased
concentration of IL-1β produced by inflammation activation (mBMDM [3]): decreases in proportion to the amount of TDCA used for treatment
survival rate ([4]; TDCA i.v. 2, 1, 1 mg/kg at 12-hour intervals, 48 hours, half of placebo animals died, FIG. 3B): all animals administered with TDCA have survived until 48 hours
blood pressure (hypotensive shock) ([4]; TDCA i.v. 2, 1, 1 mg/kg, FIG. 3C): hypotensive shock tends to be inhibited
increase in level of BUN in the blood ([4]; TDCA i.v. 2, 1, 1 mg/kg, FIG. 3D): suppressed
increase in level of creatinine in the blood ([4]; TDCA i.v. 2, 1, 1 mg/kg, FIG. 3E): suppressed
IL-1β in serum ([4]; TDCA i.v. 2, 1, 1 mg/kg, FIG. 3F): further inhibited than those in the placebo group
IL-8 in serum ([4]; TDCA i.v. 2, 1, 1 mg/kg, FIG. 3G): further inhibited than those in the placebo group
PK properties ([5]; single i.v. 0.1, 0.2, 0.4, 0.8, 1.6 mg/kg): concentration dependent manner
drug-related side effects [5, 7]: one has mild IMD (immunomodulatory drugs)-related side effects
severity and outcome of side effects [5, 7]: all of the side effects are not severe and recover without treatment
clinical trial subjects with side effects ([5]; single i.v. NuSepin 0.1-1.6 mg/kg or placebo, 40 subjects): three of the clinical trial subjects have side effects
half-life of the drug [6]: approximately 1 hour
